Values quoted from earlier work in patent US20080305171A1, “PYRROLOPYRAZINE, FORMULATIONS, METHODS OF MANUFACTURE, AND METHODS OF USE THERE” (priority 2007, published 2008).

Conditions: ethanol:phosphate buffer solution, increasing temperature and pH

## CN1CCN(C(=O)OC2c3nccnc3C(=O)N2c2ccc(Cl)cn2)CC1 (racemic) [COMPOUND II, 6-(5-chloro-2-pyridyl)-5-[(4-methyl-1-piperazinyl)carbonyloxy]-7-oxo-6,7-dihydro-5H-pyrrolo[3,4-b]pyrazine]
  chemical and isomeric stability in solution: both degrades and racemizes
